Experimental data: US6930131B2, “Aryl substituted 3-ethoxy phenyl trifluoromethane sulfonamides for the treatment of non-insulin dependent diabetes mellitus (NIDDM)” (Wyeth, priority 2002, dated 2005)
Each block holds one compound with its values, some of them ahead of it.

What was measured:
[1] = tested on: Hepatocytes Isolated and Cultured from Obese Zucker (fa/fa) Rats; assay: Inhibition of glucose output from hepatocytes isolated and cultured from obese Zucker (fa/fa) rats; format: cell-based, rat; settings: inhibition of glucose output vs glucagon stimulated cultured hepatocytes
Procedure: Inhibition of Glucose Output from Hepatocytes Isolated and Cultured from Obese Zucker (fa/fa) Rats and their Lean Controls
Culturing of Hepatocytes: Isolated hepatocytes were plated on 12 well rat-tail collagen coated plates at a cell density of 5×10(5) cells/ml (approximately 1 ml of cell suspension per well). Following a one hour attachment period in which plates were incubated in a CO2 incubator at 37 deg C. (95% O2, 5% CO2), the supernatant containing unattached hepatocytes was removed and replaced with fresh media (1 ml/well) containing 1 μM dexamethasone and 100 pM insulin. Cells were maintained at 37 deg C. for 48 hours in a 95% O2, 5% CO2 environment. At the end of the first 24 hours, the media was aspirated off of the wells and replaced with fresh media containing the same concentrations of dexamethasone and insulin as described earlier. Treatment with Drugs and Assessment of Glucose Output: Drugs were routinely added with fresh media 24 hours after the initial attachment period. Eighteen hours later, media was aspirated and 500 μl of fresh Hank's buffer, Buffer D (glucose-free) supplemented with hormones, gluconeogenic substrates and drug(s) was added to each well and incubated for 4 hours. At the end of the 4 hour incubation, media from each well was removed and assayed for glucose content using the hexokinase/glucose-6-phosphate dehydrogenase coupled assay on the Boehringer Mannheim model 911 auto analyzer. Glucose concentration was expressed as μg/ml. Three of the plates from each treated group were frozen for subsequent determination of protein content. Two plates from each treatment group were used to assess the cytotoxicity of drug(s) and other agents as determined by the MTT (tetrazolium) dye reduction method (see below).
Assessment of Cytotoxicity using MTT Dye Reduction Assay: Two plates with no insulin treatment and two plates with 10^−8 M insulin treatment were used for the MTT dye reduction assay. Following removal of media from the plates for measurement of glucose output, wells were washed once with 1 ml of Hank's buffer (0.5% BSA). Aliquots of […] of Hank's buffer (1.1% BSA) and […] MTT solution (5 mg MTT/ml in phosphate buffered saline (PBS) filtered through 0.45 micron syringe filter) were added to each well. Plates were incubated for one hour at 37 deg C. After one hour incubation, the MTT dye solution was aspirated off and […] of HCL/isopropanol solution (8 ml of 1 N HCL and 192 ml of isopropanol) was added to each well. HCL/isopropanol solution was mixed by drawing liquid into a pipetman 2 to 3 times and then carefully transferred into a 96 well flat bottom plate. The 96 well plate was read on a plate reader (UV max kinetic microplate reader, Molecular Devices) at 570 nm test wavelength and 650 nm reference wavelength. The results were expressed as % inhibition from the control (lactate and glucagon treated) well.
Protein test procedure: Three plates with no insulin treatment and three plates with 10^−8 M insulin treatment were used for protein determination. After supernatant has been removed for determination of glucose output the plates were frozen and stored at −20 deg C. until ready to assay for protein content. Prior to determination of protein the plates were defrosted at room temperature for 15 minutes. An aliquot of 1 ml 0.1 N NaOH was added to each well. Plates were incubated at 4 deg C. overnight. Solutions for measurement of protein content were mixed by pipetting the NaOH solution up and down several time with a 1 ml pipette and then transferring to a small polyethylene tube. Protein determination was based on that of the Pierce BCA protein assay protocol (Pierce cat. no. 23223). A set of protein standards (0.2, 0.4, 0.6, 0.8, and 1 mg/ml BSA) was prepared by serial dilution of 1 mg/ml bovine serum albumin with 0.1 N NaOH, and 40 μl of each standard, or control blank was pipetted into a 96-well plate in duplicate. Each unknown protein sample (40 μl) was tested in triplicate. […]

ob/ob (C57 B1/6J) mice = assay: Hypoglycemic effect in diabetic ob/ob mice; format: in vivo, mouse
Procedure: Hypoglycemic Effect in Diabetic OB/OB Mice
Procedure: In each study, male or female ob/ob (C57 B1/6J) mice and their mean litermates (ob/+ or +/+, Jackson Laboratories) ages 2 to 5 months (10 to 65 g) were randomized according to plasma glucose into 4 groups of 10 mice. The mice were housed 5 per cage and were maintained on normal rodent chow with water ad libitum. Mice receive compound daily by gavage (suspended in 0.5 ml of 0.5% methyl cellulose); dissolved in the drinking water; or admixed in the diet. The dose of compounds given ranges from 2.5 to 200 mg/kg body weight/day. Body weight of fed animals was measured at the beginning of each week and doses for the entire week were calculated using this weight and were expressed in terms of the active moiety of the compound. Control mice receive vehicle only. […]
Measurements: The plasma was isolated by centrifugation and the concentration of glucose was measured enzymatically on an Abbott V. P. Analyzer and the plasma concentration of insulin was determined by radioimmunoassay (Heding, 1972)
Analysis of variance followed by Dunnett's Comparison Test (one-tailed) was used to estimate the significant difference between the plasma glucose values from the control group and the individual compound treated groups (CMS SAS Release 5.18). A compound will be considered active if the difference has a p<0.05.

melting point: 74 to 75 °C
Structure (SMILES): O=S(=O)(Nc1cccc(CCOCc2ccc(-c3ccc(Cl)c(Cl)c3)cc2)c1)C(F)(F)F [Example 6, N-{3-[2-(3′,4′-Dichloro-biphenyl-4-ylmethoxy)-ethyl]-phenyl}-C,C,C-trifluoro-methanesulfonamide]
IC50 ([1]; Rattus norvegicus, Hepatocyte): 2.3 µM | Reduction in Plasma Glucose Day 1 (6 hr) p.o. (ob/ob (C57 B1/6J) mice; 5 mg/kg p.o.): −16% | Reduction in Plasma Glucose Day 3 (6 hr) p.o. (ob/ob (C57 B1/6J) mice; 5 mg/kg p.o.): −24%

melting point: 110 to 112 °C
Structure (SMILES): CC(C)(C)c1ccc(-c2nc(COCCc3cccc(NS(=O)(=O)C(F)(F)F)c3)cs2)cc1 [Example 43, N-(3-{2-[2-(4-tert-Butyl-phenyl)-thiazol-4-ylmethoxy]-ethyl}-phenyl)-C,C,C-trifluoro-methanesulfonamide]
IC50 ([1]; Rattus norvegicus, Hepatocyte): 6.9 µM

melting point: 69 to 70 °C
Structure (SMILES): O=S(=O)(Nc1cccc(CCOCc2ccc(-c3ccc(Cl)cc3)cc2)c1)C(F)(F)F [Example 7, N-{3-[2-(4′-Chloro-biphenyl-4-ylmethoxy)-ethyl]-phenyl}-C,C,C-trifluoromethane sulfonamide]
IC50 ([1]; Rattus norvegicus, Hepatocyte): 2.5 µM | Reduction in Plasma Glucose Day 1 (6 hr) p.o. (ob/ob (C57 B1/6J) mice; 5 mg/kg p.o.): −8% | Reduction in Plasma Glucose Day 3 (6 hr) p.o. (ob/ob (C57 B1/6J) mice; 5 mg/kg p.o.): −22%

Structure (SMILES): O=C(O)c1ncccc1S [Na-Mercaptopicolinic acid, reference compound]
IC50 [1]: 45 µM

Structure (SMILES): O=S(=O)(Nc1cccc(CCOCc2ccc(-c3ccc(Cl)cc3)cc2F)c1)C(F)(F)F [Example 11, N-{3-[2-(4′-Chloro-3-fluoro-biphenyl-4-ylmethoxy)-ethyl]-phenyl}-C,C,C-trifluoro methane sulfonamide]
IC50 [1]: 10 µM

melting point: 88 to 90 °C
Structure (SMILES): COc1cc(COCCc2cccc(NS(=O)(=O)C(F)(F)F)c2)ccc1-c1ccc(Cl)cc1 [Example 88, N-{3-[2-(4′-Chloro-2-methoxy-biphenyl-4-ylmethoxy)-ethyl]-phenyl}-C,C,C-trifluoromethane sulfonamide]
IC50 ([1]; Rattus norvegicus, Hepatocyte): 4 µM | Reduction in Plasma Glucose Day 1 (6 hr) p.o. (ob/ob (C57 B1/6J) mice; 25 mg/kg p.o.): −71 | Reduction in Plasma Glucose Day 3 (6 hr) p.o. (ob/ob (C57 B1/6J) mice; 25 mg/kg p.o.): −29

Structure (SMILES): O=S(=O)(Nc1cccc(CCOCc2ccc(-c3ccc(Cl)cc3)cc2Cl)c1)C(F)(F)F [Example 23, N-{3-[2-(3-Chloro-4′-chloro-biphenyl-4-ylmethoxy)-ethyl]-phenyl}-C,C,C-trifluoro methane sulfonamide]
IC50 [1]: 1.7 µM | Reduction in Plasma Glucose Day 1 (6 hr) p.o. (ob/ob (C57 B1/6J) mice; 5 mg/kg p.o.): −37% | Reduction in Plasma Glucose Day 3 (6 hr) p.o. (ob/ob (C57 B1/6J) mice; 5 mg/kg p.o.): −37%

melting point: 98 to 100 °C
Structure (SMILES): O=S(=O)(Nc1cccc(CCOCc2ccc(-c3ccc(C(F)(F)F)cc3)cc2)c1)C(F)(F)F [Example 2, C,C,C-trifluoro-N-{3-[2-(4′-trifluoromethyl-biphenyl-4-ylmethoxy)-ethyl]-phenyl}-methanesulfonamide]
Reduction in Plasma Glucose Day 1 (6 hr) p.o. (ob/ob (C57 B1/6J) mice; 5 mg/kg p.o.): −8% | Reduction in Plasma Glucose Day 3 (6 hr) p.o. (ob/ob (C57 B1/6J) mice; 5 mg/kg p.o.): −34%

Structure (SMILES): O=S(=O)(Nc1cccc(CCOCc2ccc(-c3ccc(F)cc3)cc2Cl)c1)C(F)(F)F [Example 22]
IC50 [1]: 2.2 µM

Structure (SMILES): O=S(=O)(Nc1cccc(CCOCc2csc(-c3ccc(F)c(Cl)c3)n2)c1)C(F)(F)F [Example 56, N-(3-{2-[2-(3-Chloro-4-fluoro-phenyl)-thiazol-4-ylmethoxy]-ethyl}-phenyl)-C,C,C-trifluoro-methanesulfonamide]
IC50 ([1]; Rattus norvegicus, Hepatocyte): 15 µM | Reduction in Plasma Glucose Day 1 (6 hr) p.o. (ob/ob (C57 B1/6J) mice; 5 mg/kg p.o.): −16% | Reduction in Plasma Glucose Day 3 (6 hr) p.o. (ob/ob (C57 B1/6J) mice; 5 mg/kg p.o.): −26%

melting point: 55 to 57 °C
Structure (SMILES): COc1ccc(-c2ccc(F)cc2)cc1COCCc1cccc(NS(=O)(=O)C(F)(F)F)c1 [Example 30, N-{3-[2-(4′-Fluoro-4-methoxy-biphenyl-3-ylmethoxy)-ethyl]-phenyl)-C,C,C-trifluoro-methanesulfonamide]

melting point: 48 to 50 °C
Structure (SMILES): O=S(=O)(Nc1cccc(CCOCc2cccc(-c3ccc(F)cc3)c2)c1)C(F)(F)F [Example 36, N-{3-[2-(4′-Fluoro-biphenyl-3-ylmethoxy)-ethyl]-phenyl)-C,C,C-trifluoro-methanesulfonamide]

melting point: 95 to 96 °C
Structure (SMILES): O=S(=O)(Nc1cccc(CCOCc2ccc(-c3ccccn3)cc2)c1)C(F)(F)F [Example 8, C,C,C-Trifluoro-N-{3-[2-(4-pyridin-2-yl-benzyloxy)-ethyl]-phenyl}-methane sulfonamide]

melting point: 82 to 84 °C
Structure (SMILES): COc1ccc(-c2ccc(COCCc3cccc(NS(=O)(=O)C(F)(F)F)c3)c(F)c2)cc1 [Example 32, N-{3-[2-(3-fluoro-4′-methoxy-biphenyl-4-ylmethoxy)-ethyl]-phenyl)-C,C,C-trifluoromethanesulfonamide]

melting point: 75 to 77 °C
Structure (SMILES): O=S(=O)(Nc1cccc(CCOCc2cccc(-c3ccccc3)n2)c1)C(F)(F)F [Example 65, C,C,C-Trifluoro-N-{3-[2-(6-phenyl-pyridin-2-ylmethoxy)-ethyl]-phenyl}-methane sulfonamide]

melting point: 89 to 90 °C
Structure (SMILES): CC(C)(C)c1ccc(-c2ccc(COCCc3cccc(NS(=O)(=O)C(F)(F)F)c3)c(F)c2)cc1 [Example 19, N-{3-[2-(4′-tert-Butyl-3-fluoro-biphenyl-4-ylmethoxy)-ethyl]-phenyl}-C,C,C-trifluoro-methanesulfonamide]
IC50 ([1]; Rattus norvegicus, Hepatocyte): 8 µM

melting point: 70 to 71 °C
Structure (SMILES): COc1ccc(-c2cc(COCCc3cccc(NS(=O)(=O)C(F)(F)F)c3)ccc2F)cc1 [Example 42, C,C,C-Trifluoro-N-{3-[2-(6-fluoro-4′-methoxy-biphenyl-3-yl-methoxy)-ethyl]-phenyl}-methanesulfonamide]
Reduction in Plasma Glucose Day 1 (6 hr) p.o. (ob/ob (C57 B1/6J) mice; 10 mg/kg p.o.): −14% | Reduction in Plasma Glucose Day 3 (6 hr) p.o. (ob/ob (C57 B1/6J) mice; 10 mg/kg p.o.): −14%

melting point: 65 to 66 °C
Structure (SMILES): O=S(=O)(Nc1cccc(CCOCc2ccc(-c3ccc(Cl)cc3Cl)cc2F)c1)C(F)(F)F [Example 15, N-{3-[2-(2′,4′-Dichloro-3-fluoro-biphenyl-4-ylmethoxy)-ethyl]-phenyl}-C,C,C-trifluoro-methanesulfonamide]

melting point: 88 to 90 °C
Structure (SMILES): COc1ccc(-c2cccc(COCCc3cccc(NS(=O)(=O)C(F)(F)F)c3)c2)cc1 [Example 28, C,C,C-Trifluoro-N-{3-[2-(4′-methoxy-biphenyl-3-ylmethoxy)-ethyl]-phenyl}-methanesulfonamide]

melting point: 155 °C (dec.)
Structure (SMILES): COc1ccc(-c2ccc(Cl)cc2)cc1COCCc1cccc(NC(N)=O)c1 [Example 41, {3-[2-(4′-Chloro-4-methoxy-biphenyl-3-ylmethoxy)-ethyl]-phenyl}-urea]

Structure (SMILES): COc1cc(-c2ccc(Cl)cc2)ccc1COCCc1cccc(NS(=O)(=O)C(F)(F)F)c1 [Example 26, N-{3-[2-(4′-Chloro-3-methoxy-biphenyl-4-ylmethoxy)-ethyl]-phenyl}-C,C,C-trifluoro methane sulfonamide]
IC50 [1]: 2.3 µM | Reduction in Plasma Glucose Day 1 (6 hr) p.o. (ob/ob (C57 B1/6J) mice; 20 mg/kg p.o.): −20% | Reduction in Plasma Glucose Day 3 (6 hr) p.o. (ob/ob (C57 B1/6J) mice; 20 mg/kg p.o.): +1
